Source: patent publication US20250222100A1, “COMPLETE TOLEROGENIC ADJUVANT AND METHODS OF USING THE SAME” (THE BOARD OF TRUSTEES OF THE UNIVERSITY OF ILLINOIS, priority 2024, published 2025)
Structures can show the parent of a compound that is named as a salt.

Assays:
[1] = tested on: antigen-reactive Treg and Teff cells; test: Ki67 assay of antigen-reactive T cells in AFK mice; assay type: in vivo, AFK mice (C57BL/6 Apoe-/- Foxp3-eGFP Ki67-tagRFP); conditions: FTY720 after 8206
Description: Preparation and Injection of Composition 8206. Composition 8206 was prepared in the same steps as described for 8203 (Example 1), except that R848 was used in place of MPLA. It was injected subcutaneously at the back flank in 50 μl of PBS. PBS containing DMSO (as “PBS”), which was the initial solvent for rapamycin and R848, was used as a control.
Ki67-TagRFP-Based In Vitro Proliferation Assay for T Cells (“Ki67 Assay”). Total cells were isolated from lymphoid organs, washed twice in RPMI 1640/10% FCS, and counted by flow cytometry as described in Example 1. A portion of the isolated cells was cultured at 1×10^6 cells/well in a 96-well U-bottom plate. The wells were filled with 200 μl of RPMI 1640/10% FCS supplemented with 2-mercaptoethanol (50 μM), murine IL-2 (20 ng/ml), MPLA (100 ng/ml), sodium pyruvate (1 mM), and a peptide antigen (3 μg/ml) or DMSO (as a solvent control for the antigen). After 5 days, the cells were analyzed by flow cytometry with a BD FACS Melody. Proliferating Treg and Teff cells were identified as CD4+Foxp-eGFP+Ki67-TagRFP+CD62L1o and CD4+Foxp-eGFP Ki 67-TagRFP+CD62L10 populations, respectively; the cells were counted by the method of Schlenke ((1998) Cytometry 33:310-317). […] The difference was expressed as count/organ by multiplying the total number of cells in an organ divided by the portion used in the assay. […]

[2] = tested on: KJ1-26+ Treg and Teff cells in DLN, NLNs and spleen; test: Inhibition of T cell egress with FTY720 in the model; assay type: in vivo, BALB/c Foxp3-eGFP mice; conditions: FTY720 with OVA-in-8203
Description: Inhibition of T Cell Egress with FTY720. FTY720 was dissolved in DMSO at 20 μg/μl. On day 5 in the model, 1 μl of FTY720 was mixed with one dose of OVA-in-8203, and the mixture was injected into the primed footpad. As a control, 1 μl of DMSO was used in place of FTY720, and the mixture was injected into a control group. On days 6 and 7, the mice were given additional injections (i.p.) of FTY720 (or DMSO) at 1 μl (diluted in 100 μl PBS)/mouse/day. On day 8, KJ1-26^+ Treg and Teff cells in the DLN, NLNs, and the spleen were counted, as described earlier.

[3] = tested on: monocyte-derived macrophages in DLN, NLN and spleen; test: Systemic MMφ influx into draining and non-draining lymph nodes (R848, 8206); assay type: in vivo, C56BL/6 mice
Description: FIGS. 9A-9B show the effect of R848 on draining lymph node (DLN) versus non-draining lymph node (NLN). (FIG. 9A) C56BL/6 mice (10-week-old) were injected at the right-footpad with 20 μl of PBS containing DMSO (control), 3 μg of MPLA, or an equal molar amount (0.6 μg) of R848. At 24 hours, monocyte-derived macrophages (MM) in both the DLN and the NLN were counted by flow cytometry. Data are mean±SD of four experiments (on a log scale). * p≤0.001 (one-way ANOVA). (FIG. 9B) Dose-response analysis of R848. C56BL/6 mice (10-week-old) were injected subcutaneously at the back flank with 50 μl of PBS containing 8 μg of dexamethasone, 20 μg of rapamycin, and an indicated dose of R848. At 24 h, MMφ in popliteal lymph nodes were counted. Shown is a nonlinearly fitted substrate inhibition curve for mean±SD of 4-8 LNs. * p≤0.01 (one-way ANOVA).
C56BL/6 mice (10-week-old) were injected subcutaneously at the back flank with 8206 or PBS. At 24 hours, MMO in popliteal (PLN), axillary (ALN), mesenteric (MLN), and caudal mediastinal (CLN) lymph nodes and the spleen (SP) were counted. Data are mean±SD of four experiments (on a log scale). *p≤0.01 (t-test).
Preparation and Injection of Composition 8206. Composition 8206 was prepared in the same steps as described for 8203 (Example 1), except that R848 was used in place of MPLA. It was injected subcutaneously at the back flank in 50 μl of PBS. […]

[4] = tested on: KJ1-26+ Treg and Teff cells; test: Mouse model testing tolerogenic adjuvants (the model): KJ1-26+ T cell counts and proliferation; assay type: in vivo, BALB/c Foxp3-eGFP mice; conditions: OVA with indicated components once every 3 days
Description: Mouse Model Testing Tolerogenic Adjuvants (“the Model”). The model was generated as follows: On day 0, whole blood was collected with heparin as the anticoagulant from a DO11.10 Foxp3-eGFP mouse. The blood was diluted 1:50 in PBS and transfused intravenously (i.v.) into sex-matched syngeneic BALB/c Foxp3-eGFP mice at ˜100 μl (containing ˜4,000 CD4+KJ1-26^+ cells) per mouse. On day 1, the recipients were injected at a footpad with 100 μg of OVA in 20 μl of PBS (see “Footpad Injection”) and let rest. On day 5, they were used as the model.
Determination of CD4^+ T cell Counts in the Model. A cell suspension was prepared from the DLN, NLNs, or the spleen as described herein. For counting CD4^+ T cells in the DLN, a portion of the DLN cell suspension was stained with PE/Cy7 anti-CD3 and APC anti-CD4 and analyzed by flow cytometry. The total CD4^+ T cell count (CD3+CD4+) in the suspension was determined by the method of Schlenke et al. ((1998) Cytometry 33:310-317). […] Cells were analyzed by flow cytometry. The total counts in the suspension for KJ1-26^+ Treg, KJ1-26^+ Teff, host Treg, and host Teff cells were calculated as portions of the total CD4^+ T cell count. The count in percent for Treg cells (“% Treg”) was calculated as % of the total Treg and Teff counts combined. […]

[5] = tested on: MMφs, DCs, Treg cells and Teff cells in draining lymph node; test: Adjuvant-induced potentiation in lymphoid organs after footpad injection; assay type: in vivo, mouse; conditions: one day
Description: Footpad Injection. “A footpad” means the footpad of the right hind leg. Adjuvant components, antigens, or their combinations were injected subcutaneously (s.c.) between the 3rd and 4th toes in a volume of ˜20 μl in phosphate-buffered saline (PBS) with a BD insulin syringe.
Dose-Response Analysis. For dose-response analysis of MPLA, the reagent was serially diluted in DMSO; 5 μl of the diluted reagent were mixed with 100 μl of PBS and the resulting mixture was injected at 20 μl/footpad. For dose 0, 5 μl of DMSO were mixed with 100 μl of PBS and the resulting mixture was injected. Dose-response analysis of rapamycin was performed similarly, except that PBS containing 3 μg of MPLA was used in place of PBS.
Analysis of Adjuvant-Induced Potentiation in Lymphoid Organs. […] Cells were analyzed by flow cytometry. […] The total counts of MMos (CD11^loCD40^lo) (Zheng et al. (2013) Eur. J. Immunol. 43:219-227) and DCs (all the CD11+CD40^+ cells after excluding the CD11^loCD40^lo cells) (Zheng et al. (2013) Eur. J. Immunol. 43:219-227) in the cell suspension were determined by the method of Schlenke et al. ((1998) Cytometry 33:310-317). The MMφ count in percent was calculated as % of the total MMO and DC counts combined. […]

CCCCCCCCc1ccc(CCC(N)(CO)CO)cc1 [FTY720, fingolimod HCl]
accumulation of P210m-reactive Treg cells in spleen with egress blocker [1]: could be inhibited | gain of KJ1-26+ Treg counts in NLNs and spleen [2]: could be blocked

CCOCc1nc2c(N)nc3ccccc3c2n1CC(C)(C)O [R848, resiquimod]
optimal dose for systemic MMφ effect ([3]; combined with 8 μg dexamethasone and 20 μg rapamycin, s.c. back flank): about 6 μg

monophosphoryl lipid A [MPLA]
role of component in prolonging Treg cell expansion / shortening Teff cell expansion in DLN [4]: not required here for either effect | attraction of MMφs to non-draining lymph nodes ([3]; footpad, 24 hours): could not | influx of MMφs, Teff cells, DCs and Treg cells to the DLN ([5]; injected alone into a footpad, BALB/c mouse): induced an influx of MMφs and Teff cells preferentially over that of DCs and Treg cells | abundance and absolute number of MMφs in the DLN ([5]; single footpad injection, BALB/c): attract MMS
